According to publication PMC3425516 (PLoS ONE, 2012):

Tests used:
COLO 205 = test: NCI-60 cell lines screening; type: cell-based, human; conditions: COLO 205, Colon Cancer panel
Procedure: (§1) The NCI-60 cancer cell lines screening was conducted by the NCI’s Developmental Therapeutics Program (DTP; http://www.dtp.nci.nih.gov/branches/btb/ivclsp.html).

HCC-2998 = test: NCI-60 cell lines screening; type: cell-based, human; conditions: HCC-2998, Colon Cancer panel
Procedure: as §1

HCT-116 = test: NCI-60 cell lines screening; type: cell-based, human; conditions: HCT-116, Colon Cancer panel
Procedure: as §1

HOP-62 = test: NCI-60 cell lines screening; type: cell-based, human; conditions: HOP-62, Non-Small Cell Lung Cancer panel
Procedure: as §1

HOP-92 = test: NCI-60 cell lines screening; type: cell-based, human; conditions: HOP-92, Non-Small Cell Lung Cancer panel
Procedure: as §1

HS 578T = test: NCI-60 cell lines screening; type: cell-based, human
Procedure: as §1

LOX IMVE = test: NCI-60 cell lines screening; type: cell-based, human; conditions: Melanoma panel
Procedure: as §1

M14 = test: NCI-60 cell lines screening; type: cell-based, human; conditions: M14, Melanoma panel
Procedure: as §1

MAD-MB-231/ATCC = test: NCI-60 cell lines screening; type: cell-based, human; conditions: Breast Cancer panel
Procedure: as §1

OVCAR-4 = test: NCI-60 cell lines screening; type: cell-based, human; conditions: OVCAR-4, Ovarian Cancer panel
Procedure: as §1

SF-268 = test: NCI-60 cell lines screening; type: cell-based, human; conditions: SF-268, CNS Cancer panel
Procedure: as §1

SK-MEL-28 = test: NCI-60 cell lines screening; type: cell-based, human; conditions: SK-MEL-28, Melanoma panel
Procedure: as §1

SK-MEL-5 = test: NCI-60 cell lines screening; type: cell-based, human; conditions: SK-MEL-5, Melanoma panel
Procedure: as §1

SN12C = test: NCI-60 cell lines screening; type: cell-based, human; conditions: Renal Cancer panel
Procedure: as §1

UACC-257 = test: NCI-60 cell lines screening; type: cell-based, human; conditions: UACC-257, Melanoma panel
Procedure: as §1

HUVEC = test: Crystal violet cell growth assay; type: cell-based, human
Procedure: The HUVECs were seeded into 96-well culture plates (5000 cells/well) in quadruplicate. After 24 h incubation, cells were fixed with 0.1% crystal violet/20% methanol, representing cell population at the time of drug treatment (T 0). […] After 48 h incubation at 37°C, cells were stained with 0.1% crystal violet/20% methanol for 10 minutes and washed for 3 times.

recombinant human HDAC2 = recombinant human HDAC2 (Homo sapiens, UniProt Q92769); test: HDAC biochemical assay (fluorogenic); conditions: Class I, mean±SE
Sequence of recombinant human HDAC2 (Q92769 whole entry): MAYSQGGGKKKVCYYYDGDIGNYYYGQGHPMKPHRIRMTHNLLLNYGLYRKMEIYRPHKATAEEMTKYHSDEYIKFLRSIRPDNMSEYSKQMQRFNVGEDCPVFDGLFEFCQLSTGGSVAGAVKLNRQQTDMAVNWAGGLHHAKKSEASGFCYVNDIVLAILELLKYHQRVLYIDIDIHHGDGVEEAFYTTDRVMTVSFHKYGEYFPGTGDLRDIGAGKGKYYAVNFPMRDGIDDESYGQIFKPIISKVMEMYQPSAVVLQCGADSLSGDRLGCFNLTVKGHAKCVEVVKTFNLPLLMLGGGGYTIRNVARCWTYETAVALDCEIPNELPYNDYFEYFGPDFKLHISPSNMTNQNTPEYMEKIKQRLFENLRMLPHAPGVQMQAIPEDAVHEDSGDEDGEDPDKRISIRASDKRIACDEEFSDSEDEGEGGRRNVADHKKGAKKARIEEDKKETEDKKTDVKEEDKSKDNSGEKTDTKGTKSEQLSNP
Text: (§4) The HDACs in vitro activities of recombinant human HDAC 1, 2, 4, 6 and 8 (BPS Biosciences) were detected by fluorigenic release of 7-amino-4-methylcoumarin from substrate upon deacetylase enzymatic activity.

[1] = test system: total HDAC activity in HCT116 cells; test: Total HDACs enzymatic activity assay in treated cells; type: cell-based, human; conditions: HCT116 cells treated 24 h
Procedure: Total HDACs enzyme activity was determined using the Boc-Lys(Ac)-AMC fluorometric HDAC activity assay kit (BioVision, Mountain View, CA, USA).

[2] = test system: human HCT116 colorectal cancer xenograft; test: HCT116 xenograft, tumor growth delay to 1,200 mm^3 endpoint; type: in vivo, nude mice; conditions: for No. of CR (complete regression): 8 mice per group; for %TGD (tumor growth delay): [(T-C)/C]×100; for T-C: median TTE treated versus control
Procedure: (§2) The human HCT116 colorectal adenocarcinoma cells used for implantation were harvested during log phase growth and resuspended in phosphate-buffered saline at 5×10^7 cells/mL. Each mouse was injected s.c. in the right flank with 1.0×10^7 cells (0.2 mL cell suspension). Tumors were monitored twice weekly and then daily as their volumes approached 1,200 mm^3. Tumor size, in mm^3, was calculated from: where w = width and l = length in mm of the tumor. Tumor volume = (w^2×l)/2.
The logrank test was used to determine the statistical significance of the difference between the TTE values of two groups, except any NTR deaths. […] The two-tailed statistical analyses were conducted at P = 0.05. Kaplan-Meier plots show the percentage of animals remaining in the study versus time. The Kaplan-Meier plots use the same data set as the logrank test.
(§3) Once a tumor was palpable with the size of approximately 55 mm^3, mice were randomized into vehicle control and treatment groups (8 mice per group). Control mice received the vehicle (0.5% carboxymethyl cellulose +0.1% Tween 80). Tumors in all 3 groups were allowed to reach an endpoint volume of 1,200 mm^3.

[3] = test system: human HCT116 colorectal cancer xenograft; test: HCT116 xenograft, tumor growth inhibition after 15 days dosing; type: in vivo, nude mice
Procedure: as §2
The tumor growth curves show the group median tumor volume, on a log scale as a function of time.
as §3

recombinant human HDAC1 = recombinant human HDAC1 (Homo sapiens, UniProt Q13547); test: biochemical
Sequence of recombinant human HDAC1 (Q13547 whole entry): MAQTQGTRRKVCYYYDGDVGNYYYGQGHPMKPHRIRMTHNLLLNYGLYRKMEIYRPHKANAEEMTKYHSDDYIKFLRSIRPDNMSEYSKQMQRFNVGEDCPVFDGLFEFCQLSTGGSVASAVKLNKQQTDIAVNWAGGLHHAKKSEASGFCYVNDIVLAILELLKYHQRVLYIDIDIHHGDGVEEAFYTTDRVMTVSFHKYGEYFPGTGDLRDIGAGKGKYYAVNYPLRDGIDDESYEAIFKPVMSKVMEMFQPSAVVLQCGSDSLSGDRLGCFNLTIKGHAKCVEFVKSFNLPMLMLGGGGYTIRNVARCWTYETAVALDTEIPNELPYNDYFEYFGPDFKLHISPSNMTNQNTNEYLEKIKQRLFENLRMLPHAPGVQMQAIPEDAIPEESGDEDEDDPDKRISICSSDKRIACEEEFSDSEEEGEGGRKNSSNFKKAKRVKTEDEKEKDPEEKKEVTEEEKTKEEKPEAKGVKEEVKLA
Text: as §4

recombinant human HDAC8 = recombinant human HDAC8 (Homo sapiens, UniProt Q9BY41); test: biochemical
Sequence of recombinant human HDAC8 (Q9BY41 whole entry): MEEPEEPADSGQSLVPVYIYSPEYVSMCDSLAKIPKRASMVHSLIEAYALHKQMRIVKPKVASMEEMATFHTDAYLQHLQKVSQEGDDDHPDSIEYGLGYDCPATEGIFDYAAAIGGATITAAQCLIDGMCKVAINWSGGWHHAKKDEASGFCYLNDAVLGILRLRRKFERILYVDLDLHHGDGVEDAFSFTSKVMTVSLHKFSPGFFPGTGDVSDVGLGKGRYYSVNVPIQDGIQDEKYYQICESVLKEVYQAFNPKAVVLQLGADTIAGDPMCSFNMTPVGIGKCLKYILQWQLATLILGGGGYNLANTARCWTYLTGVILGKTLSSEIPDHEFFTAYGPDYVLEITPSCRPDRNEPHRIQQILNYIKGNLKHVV
Text: as §4

recombinant human HDAC6 = recombinant human HDAC6 (Homo sapiens, UniProt Q9UBN7); test: biochemical
Sequence of recombinant human HDAC6 (Q9UBN7 whole entry): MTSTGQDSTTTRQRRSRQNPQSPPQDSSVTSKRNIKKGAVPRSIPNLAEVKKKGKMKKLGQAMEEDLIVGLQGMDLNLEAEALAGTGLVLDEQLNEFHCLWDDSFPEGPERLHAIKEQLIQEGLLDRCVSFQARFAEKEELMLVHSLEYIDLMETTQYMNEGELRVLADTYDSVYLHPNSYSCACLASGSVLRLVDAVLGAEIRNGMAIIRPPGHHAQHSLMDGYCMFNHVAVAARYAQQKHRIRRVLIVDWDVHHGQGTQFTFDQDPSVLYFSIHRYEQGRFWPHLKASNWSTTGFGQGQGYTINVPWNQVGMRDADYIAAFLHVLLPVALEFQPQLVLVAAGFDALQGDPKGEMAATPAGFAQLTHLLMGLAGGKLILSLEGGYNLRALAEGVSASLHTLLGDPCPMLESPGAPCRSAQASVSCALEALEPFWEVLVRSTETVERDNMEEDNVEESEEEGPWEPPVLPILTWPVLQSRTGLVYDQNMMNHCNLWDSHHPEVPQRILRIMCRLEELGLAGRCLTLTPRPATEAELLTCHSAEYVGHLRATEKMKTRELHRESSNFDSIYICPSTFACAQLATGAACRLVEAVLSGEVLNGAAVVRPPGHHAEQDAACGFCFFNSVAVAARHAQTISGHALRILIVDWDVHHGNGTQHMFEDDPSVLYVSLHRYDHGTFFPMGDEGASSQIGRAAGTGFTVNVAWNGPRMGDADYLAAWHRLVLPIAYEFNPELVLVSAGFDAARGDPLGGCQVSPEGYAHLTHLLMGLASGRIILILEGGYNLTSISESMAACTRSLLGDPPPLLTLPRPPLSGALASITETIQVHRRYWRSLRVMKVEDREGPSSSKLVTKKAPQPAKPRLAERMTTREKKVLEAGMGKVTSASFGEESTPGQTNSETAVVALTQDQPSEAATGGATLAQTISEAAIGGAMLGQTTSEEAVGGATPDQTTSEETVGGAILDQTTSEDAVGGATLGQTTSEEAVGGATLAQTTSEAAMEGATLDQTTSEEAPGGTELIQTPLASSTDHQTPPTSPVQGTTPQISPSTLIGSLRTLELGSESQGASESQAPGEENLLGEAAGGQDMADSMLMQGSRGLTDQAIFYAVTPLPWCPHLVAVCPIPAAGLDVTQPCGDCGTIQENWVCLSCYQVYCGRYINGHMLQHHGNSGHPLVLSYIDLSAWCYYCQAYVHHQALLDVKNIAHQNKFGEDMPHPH
Text: as §4

[4] = Homo sapiens, read-out: LC50 (the source's name)

## O=C(C=Cc1ccc2c(c1)CCN2S(=O)(=O)c1ccccc1)NO [MPT0E028, 3-(1-benzenesulfonyl-2,3-dihydro-1H-indol-5-yl)-N-hydroxy-acrylamide]
COLO 205
  TGI: 264 nM
COLO 205; Homo sapiens
  GI50: 128 nM
COLO 205; [4]
  CC50: 546 nM
HCC-2998
  TGI: 522 nM
HCC-2998; Homo sapiens
  GI50: 194 nM
HCC-2998; [4]
  CC50: 2060 nM
HCT-116
  TGI: 204 nM
HCT-116; Homo sapiens
  GI50: 56.3 nM
HCT-116; [4]
  CC50: 566 nM
HOP-62
  TGI: 1.06 µM
HOP-62; Homo sapiens
  GI50: 187 nM
HOP-62; [4]
  CC50: 19.2 µM
HOP-92
  TGI: 814 nM
HOP-92; Homo sapiens
  GI50: 210 nM
HOP-92; [4]
  CC50: 18 µM
HS 578T; HS 578T, Breast Cancer panel
  TGI: 17.9 µM
HS 578T; Homo sapiens, Hs-578T
  GI50: 253 nM
HS 578T; Homo sapiens, Hs-578T, read-out: LC50 (the source's name)
  CC50: > 100 µM
LOX IMVE; Homo sapiens
  GI50: 222 nM
LOX IMVE; [4]
  CC50: 2880 nM
LOX IMVE
  TGI: 718 nM
M14; Homo sapiens
  GI50: 179 nM
M14; [4]
  CC50: 6.45 µM
M14
  TGI: 1.11 µM
MAD-MB-231/ATCC
  TGI: 822 nM
MAD-MB-231/ATCC; Homo sapiens
  GI50: 241 nM
MAD-MB-231/ATCC; [4]
  CC50: 20.4 µM
OVCAR-4; Homo sapiens
  GI50: 509 nM
OVCAR-4; [4]
  CC50: > 100 µM
OVCAR-4
  TGI: 31.8 µM
SF-268; Homo sapiens
  GI50: 464 nM
SF-268; [4]
  CC50: 70.4 µM
SF-268
  TGI: 3.4 µM
SK-MEL-28; Homo sapiens
  GI50: 406 nM
SK-MEL-28; [4]
  CC50: > 100 µM
SK-MEL-28
  TGI: 2.74 µM
SK-MEL-5; Homo sapiens
  GI50: 136 nM
SK-MEL-5; [4]
  CC50: 705 nM
SK-MEL-5
  TGI: 310 nM
SN12C; Homo sapiens
  GI50: 458 nM
SN12C; [4]
  CC50: > 100 µM
SN12C
  TGI: 10.2 µM
UACC-257; Homo sapiens
  GI50: 127 nM
UACC-257; [4]
  CC50: > 100 µM
UACC-257
  TGI: 1.65 µM
HUVEC; HUVEC (human normal cells), crystal violet assay, 48 h
  GI50: 3.57 ± 0.45 µM
HUVEC; HUVEC versus cancer cells
  folds less sensitive against normal cells (safety margin): 20–40 folds
Recombinant human HDAC2
  IC50: 106 ± 23 nM
[1]
  IC50: 4.43 ± 0.5 µM
[2]; 50 mg/kg po qd
  No. of CR (complete regression): 0
  %TGD (tumor growth delay): 0%
  T-C: 0 days
[2]; 100 mg/kg po qd to endpoint 1200 mm^3
  Median TTE: 19.2 days
[2]; 100 mg/kg po qd
  No. of CR (complete regression): 1
  %TGD (tumor growth delay): 16%
  T-C: 2.6 days
[2]; 200 mg/kg po qd to endpoint 1200 mm^3
  Median TTE: 36.9 days
[2]; 200 mg/kg po qd
  No. of CR (complete regression): 3
  %TGD (tumor growth delay): 122%
  T-C: 20 days
[3]; 100 mg/kg oral once a day for 15 days
  percent tumor growth inhibition (%TGI): 32.0%
[3]; 200 mg/kg oral once a day for 15 days
  percent tumor growth inhibition (%TGI): 73.5%
Recombinant human HDAC1
  IC50: 53 ± 12 nM
Recombinant human HDAC8
  IC50: 2530 ± 315 nM
Recombinant human HDAC6
  IC50: 29.5 ± 6.4 nM
